Experiments:
[1] = test system: Actinomyces naeslundii (A. n) ATCC 12104; assay: Broth micro-dilution MIC; type: cell-based; conditions: no unit in table; dilution series 250-0.12 mg/L, ceiling 250 ppm; 37 °C, 18-24 h; smaller = stronger
Source text: (§1) 3. The Inhibition Experiment of Licochalone A and Total Flavonoid Extracts of Zhangguo Licorice (Glycyrrhiza inflate Betal) on Primary Oral Pathogenic Microorganisms 3.1 The Cultivation of the Bacteria Species: Streptococcus mutans (ATCC 25175), Actinomyces naeslundii (ATCC 12104), Actinobacillus actinomycetemicomtans (ATCC 43717), Porphyromonas gingivalis (ATCC 33277), Listed as Following:
(§2) A single colony is picked from the Trypticase Digested Soybean peptone agar blood plate (TSA5B) ordinarily stored bacteria species to Trypticase Digested Soybean peptone broth (TSB), cultivated in microaerobic environment (only P.g needs anaerobic cultivation) with 95% air, 5% CO2 at 37.0° C.±1.0° C., wherein S.m is cultivated for 18-24 h, and the remaining three are cultivated for 40-48 h. Then sterile TSB is used to adjust the turbidity of the bacteria suspension to 0.5^#McFarland standard, equivalent to 1.0×10^8 CFU/mL.
(§3) After performing a series of 2-fold dilutions to the anti-bacteria pharmaceuticals, rationally inoculate with tested bacteria, and observe after incubated at 37° C. for 18-24 h, wherein the lowest pharmaceutical concentration that inhibits the growth visible to the naked eye of the tested bacteria is the minimum inhibitive concentration (MIC) of the tested pharmaceuticals to the tested bacteria. The operating steps are:
(§4) a. Preparation of the stock solution of antibacterial pharmaceutical: Prepare 1% stock solution of various antibacterial pharmaceuticals dope with 100% pure ethanol as solvent. The prepared stock solution is filtered to eliminate bacteria, and is distributed into small portions to be used. b. Range of measured concentration: the present experiment chooses 250 ppm as the ceiling measured concentration of the anti-bacteria pharmaceutical. c. Measuring method: micro-dilution method.
(§5) First add 100 μL TSB to each hole of the 96-well plate, and add 100 μL sterile anti-bacteria pharmaceutical solution which is diluted 10-folds (1000 mg/l) to each hole of the first column, then blow on each hole of the first column repeatedly for 7-8 times using multi-channel micropipet, transfer 100 μL sample to the second column after sufficiently mixing the pharmaceutical with TSB, and after similarly blowing for 7-8 times, transfer 100 μL sample to the third column, and analogously to the last column, thus the concentration of pharmaceutical is 2-fold gradiently diluted, from 500 mg/L of the first column to 0.24 mg/L of the last column (the 12th column).
(§6) The bacteria to be tested and standard bacteria are prepared as above. Dilute the bacteria solution with TSB to a bacteria content of about 10^6 CFU/mL. Then inoculate 100 μL for each hole. Thus the final diluted concentration of the anti-bacteria pharmaceutical in each line are 250, 125, 62.5 . . . 0.12 mg/L, and the final inoculation quantity is about […] or 5×10^6 bacteria each hole; the 96-well plate is placed on a microshaker and is shook for 1 min to mix the solution in each hole. The microwell plate is covered and is sealed with adhesive paper to reduce the evaporation during the incubation process and is placed in a humid box, cultivated in microaerobic environment with 95% air, 5% CO2 (or in anaerobic environment with 90% N2, 5% H2, 5% CO2) at 37.0° C.±1.0° C. for 18-24 h. The 96-well plate is placed under an enzyme-labeling instrument, and by comparing the growing characteristics of the tested bacteria with the standard bacteria, the lowest anti-bacteria pharmaceutical concentration contained in the hole without bacteria is taken as MIC.

[2] = test system: Porphyromonas gingivalis (P. g) ATCC 33277; assay: Broth micro-dilution MIC; type: cell-based; conditions: no unit in table; dilution series 250-0.12 mg/L, ceiling 250 ppm; anaerobic, 37 °C, 18-24 h; smaller = stronger
Source text: as §1, §2, §3, §4, §5, §6

[3] = test system: Actinobacillus actinomycetemcomitans (A. a) ATCC 43717; assay: Broth micro-dilution MIC; type: cell-based; conditions: no unit in table; dilution series 250-0.12 mg/L, ceiling 250 ppm; 37 °C, 18-24 h; smaller = stronger
Source text: as §1, §2, §3, §4, §5, §6

[4] = test system: Streptococcus mutans (S. m) ATCC 25175; assay: Broth micro-dilution MIC; type: cell-based; conditions: no unit in table; dilution series 250-0.12 mg/L, ceiling 250 ppm; 37 °C, 18-24 h; smaller = stronger
Source text: as §1, §2, §3, §4, §5, §6

IL-1β = assay: KB cell Luminex liquid-phase chip analysis; type: cell-based, human; conditions: KB cell supernatant, higher = stronger, test concentration not given
Protocol: (§7) During the experiment, the KB cell inoculated in the cultivating plate is treated with or without (control) Licochalone A. After the treatment, the supernatant of the cultivated liquid is collected and stored in −80 C refrigerator. The PGE2 in the supernatant is detected by Enzyme-linked immunsorbent assay, and Luminex multifunctional liquid-phase chip analysis system is used for the detection of GM-CSF, TNF-α, IL-1β and IL-6 (the result is shown in Table 3).
(§8) The 96-well plate is enclosed for 30 min. The fluorescent microspheres are added into the 96-well plate after dilution. Add the standard sample and the sample to be measured, stay overnight at 4° C. In the next day, the supernatant is discarded, and 50 μl GM-CSF, TNF-α, IL-1β and IL-6 antibodies are added to each hole. After rinsing 4 times, the 96-well plate is placed in a shaking table under ambient temperature to shade from light for 1 h, rinse 4 times, and add PE labeled with streptavidin and shade from light for 15 min at room temperature. Rinse 4 times, the microspheres are suspended in the rinsing buffer, and the 96-well plate is immediately placed on Luminex (Luminex Corporation, Austin, Tx.) to analyze.

TNF-α = assay: KB cell Luminex liquid-phase chip analysis; type: cell-based, human; conditions: KB cell supernatant, higher = stronger, test concentration not given
Protocol: as §7, §8

IL-6 = assay: KB cell Luminex liquid-phase chip analysis; type: cell-based, human; conditions: KB cell supernatant, higher = stronger, test concentration not given
Protocol: as §7, §8

GM-CSF = assay: KB cell Luminex liquid-phase chip analysis; type: cell-based, human; conditions: KB cell supernatant, higher = stronger, test concentration not given
Protocol: as §7, §8

| SMILES | minimum inhibitive concentration (MIC), A. n [1] | minimum inhibitive concentration (MIC), P. g [2] | minimum inhibitive concentration (MIC), A. a [3] | minimum inhibitive concentration (MIC), S. m [4] | IL-1β (interleukin) (anti-inflammatory ability) (IL-1β) [%] | TNF-α (Tumor Necrosis Factor) (anti-inflammatory ability) (TNF-α) [%] | IL-6 (interleukin) (anti-inflammatory ability) (IL-6) [%] | GM-CSF (anti-inflammatory ability) (GM-CSF) [%] |
| --- | --- | --- | --- | --- | --- | --- | --- | --- |
| C=CC(C)(C)c1cc(/C=C/C(=O)c2ccc(O)cc2)c(OC)cc1O [Licochalone A, 5-(1,1-Dimethylallyl)-4,4′-dihydroxy-2-methoxychalcone] | 7.8 | 1.9 | >250 | 7.8 | 19 | 95 | 50 | 8 |
| Oc1cc(Cl)ccc1Oc1ccc(Cl)cc1Cl [Triclosan] | 3.9 | 7.8 | 1.9 | 3.9 | 7 | 81 | 31 | 5 |
